The target in experiment [1] is T1, human JAK2 (Homo sapiens, UniProt O60674).
T1 construct: JAK2 (a.a. 828-1132); His tag (N); made in house; host or cells: insect cells (baculovirus)
As to the kind of experiment: In Vitro JAK Kinase Assay (HTRF, phosphorylation of a biotinylated peptide), JAK2. The conditions noted are these: Table 4; assay of Example A. The experiment is classed as biochemical. In outline:
(§1)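 HTRF detection (SA-APC plus Eu-labeled anti-phosphotyrosine Py20, 40 min after EDTA stop) quantified biotinylated-peptide phosphorylation. Kinase reactions with human JAK1 or JAK2 catalytic domains lasted 1 h at room temperature.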
In general terms: TR-FRET usually uses a lanthanide donor and a delayed reading to cut background.

Experiment [2] addresses T2, human JAK1 (Homo sapiens, UniProt P23458).
T2 construct: human JAK1 (a.a. 837-1142); His tag (N); made in house; host or cells: insect cells (baculovirus)
The experiment is described as follows: In Vitro JAK Kinase Assay (HTRF, phosphorylation of a biotinylated peptide), JAK1. The experiment is classed as biochemical. The conditions noted are these: Table 4; catalytic domain a.a. 837-1142, assay of Example A. In outline:
as §1

Where a name gives a salt, the structure may show the parent alone.

T2 sequence (P23458 849-1154): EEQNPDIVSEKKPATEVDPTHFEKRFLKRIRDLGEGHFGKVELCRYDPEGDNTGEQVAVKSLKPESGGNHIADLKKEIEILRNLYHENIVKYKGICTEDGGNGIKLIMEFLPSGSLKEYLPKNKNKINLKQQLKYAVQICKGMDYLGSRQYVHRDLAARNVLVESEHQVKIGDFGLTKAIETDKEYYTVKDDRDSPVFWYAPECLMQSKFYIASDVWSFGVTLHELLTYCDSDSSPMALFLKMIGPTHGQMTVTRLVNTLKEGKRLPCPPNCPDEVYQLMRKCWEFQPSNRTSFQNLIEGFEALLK
T1 sequence (O60674 828-1132): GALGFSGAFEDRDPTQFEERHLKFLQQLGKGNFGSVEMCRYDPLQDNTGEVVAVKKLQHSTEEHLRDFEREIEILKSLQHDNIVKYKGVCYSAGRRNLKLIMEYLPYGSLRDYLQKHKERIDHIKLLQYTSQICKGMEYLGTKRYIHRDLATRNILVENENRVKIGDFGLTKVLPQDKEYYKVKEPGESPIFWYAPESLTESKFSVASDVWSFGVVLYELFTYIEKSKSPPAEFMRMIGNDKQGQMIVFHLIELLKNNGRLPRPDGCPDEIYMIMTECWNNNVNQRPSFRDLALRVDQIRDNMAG

A word on the IC50: it is the midpoint of a concentration-inhibition curve. High values mean weaker potency, low ones greater potency. Turning to `N#CCC1(n2cc(-c3ncnc4[nH]ccc34)cn2)CN([C@H]2CC[C@@H](Oc3cc(CNC[C@@H]4CCCO4)nc(C(F)(F)F)n3)CC2)C1` [Example 27, [3-[4-(7H-pyrrolo[2,3-d]pyrimidin-4-yl)-1H-pyrazol-1-yl]-1-(cis-4-{[6-({[(2S)-tetrahydrofuran-2-ylmethyl]amino}methyl)-2-(trifluoromethyl)pyrimidin-4-yl]oxy}cyclohexyl)azetidin-3-yl]acetonitrile tris(trifluoroacetate)], in experiment [1], the “JAK2/JAK1 IC50 ratio” value was “≧10”. In experiment [2], this compound came in with an IC50 below 10 nM.
Turning to `N#CCC1(n2cc(-c3ncnc4[nH]ccc34)cn2)CN([C@H]2CC[C@@H](Oc3cc(CN4CCC[C@H]4CO)nc(C(F)(F)F)n3)CC2)C1` [Example 28, {1-(cis-4-{[6-{[(2R)-2-(hydroxymethyl)pyrrolidin-1-yl]methyl}-2-(trifluoromethyl)pyrimidin-4-yl]oxy}cyclohexyl)-3-[4-(7H-pyrrolo[2,3-d]pyrimidin-4-yl)-1H-pyrazol-1-yl]azetidin-3-yl}acetonitrile tris(trifluoroacetate) (salt)], the “JAK2/JAK1 IC50 ratio” value in experiment [1] is on record as “≧10”. Besides, the IC50 in experiment [2] was below 10 nM.
Regarding `N#CCC1(n2cc(-c3ncnc4[nH]ccc34)cn2)CN([C@H]2CC[C@@H](Oc3cc(CN4CCC[C@@H]4CO)nc(C(F)(F)F)n3)CC2)C1` [Example 29, {1-(cis-4-{[6-{[(2S)-2-(hydroxymethyl)pyrrolidin-1-yl]methyl}-2-(trifluoromethyl)pyrimidin-4-yl]oxy}cyclohexyl)-3-[4-(7H-pyrrolo[2,3-d]pyrimidin-4-yl)-1H-pyrazol-1-yl]azetidin-3-yl}acetonitrile tris(trifluoroacetate) (salt)], the “JAK2/JAK1 IC50 ratio” value in experiment [1] is “≧10”. Also, the IC50 in experiment [2] is below 10 nM.
With `N#CCC1(n2cc(-c3ncnc4[nH]ccc34)cn2)CN([C@H]2CC[C@@H](Oc3cc(CN4CC[C@H](F)C4)nc(C(F)(F)F)n3)CC2)C1` [Example 31, {1-(cis-4-{[6-{[(3S)-3-fluoropyrrolidin-1-yl]methyl}-2-(trifluoromethyl)pyrimidin-4-yl]oxy}cyclohexyl)-3-[4-(7H-pyrrolo[2,3-d]pyrimidin-4-yl)-1H-pyrazol-1-yl]azetidin-3-yl}acetonitrile tris(trifluoroacetate)], in experiment [1], the “JAK2/JAK1 IC50 ratio” value is on record as “≧10”. Moreover, the half-maximal inhibitory concentration (IC50) in experiment [2] is below 10 nM.
On the same counts, the results for `CCCNCc1cc(O[C@H]2CC[C@@H](N3CC(CC#N)(n4cc(-c5ncnc6[nH]ccc56)cn4)C3)CC2)nc(C(F)(F)F)n1.O=C(O)C(F)(F)F.O=C(O)C(F)(F)F.O=C(O)C(F)(F)F` [Example 32, {1-(cis-4-{[6-[(propylamino)methyl]-2-(trifluoromethyl)pyrimidin-4-yl]oxy}cyclohexyl)-3-[4-(7H-pyrrolo[2,3-d]pyrimidin-4-yl)-1H-pyrazol-1-yl]azetidin-3-yl}acetonitrile tris(trifluoroacetate)] are “≧10” and below 10 nM.
Consider `N#CCC1(n2cc(-c3ncnc4[nH]ccc34)cn2)CN([C@H]2CC[C@@H](Oc3cc(CNCC(O)CO)nc(C(F)(F)F)n3)CC2)C1` (stereo partly drawn) [Example 33, {1-(cis-4-{[6-{[(2,3-dihydroxypropyl)amino]methyl}-2-(trifluoromethyl)pyrimidin-4-yl]oxy}cyclohexyl)-3-[4-(7H-pyrrolo[2,3-d]pyrimidin-4-yl)-1H-pyrazol-1-yl]azetidin-3-yl}acetonitrile tris(trifluoroacetate) (salt)], for which, in experiment [1], the “JAK2/JAK1 IC50 ratio” value is reported as “≧10”. The compound further gave an IC50 in experiment [2] below 10 nM.
Consider `CCCCNCc1cc(O[C@H]2CC[C@@H](N3CC(CC#N)(n4cc(-c5ncnc6[nH]ccc56)cn4)C3)CC2)nc(C(F)(F)F)n1.O=C(O)C(F)(F)F.O=C(O)C(F)(F)F.O=C(O)C(F)(F)F` [Example 34, {1-(cis-4-{[6-[(butylamino)methyl]-2-(trifluoromethyl)pyrimidin-4-yl]oxy}cyclohexyl)-3-[4-(7H-pyrrolo[2,3-d]pyrimidin-4-yl)-1H-pyrazol-1-yl]azetidin-3-yl}acetonitrile tris(trifluoroacetate)], for which, in experiment [1], the “JAK2/JAK1 IC50 ratio” value is “≧10”. Moreover, the IC50 in experiment [2] was below 10 nM.
On the same counts, the results for `CCCCN(C)Cc1cc(O[C@H]2CC[C@@H](N3CC(CC#N)(n4cc(-c5ncnc6[nH]ccc56)cn4)C3)CC2)nc(C(F)(F)F)n1.O=C(O)C(F)(F)F.O=C(O)C(F)(F)F.O=C(O)C(F)(F)F` [Example 36, {1-(cis-4-{[6-{[butyl(methyl)amino]methyl}-2-(trifluoromethyl)pyrimidin-4-yl]oxy}cyclohexyl)-3-[4-(7H-pyrrolo[2,3-d]pyrimidin-4-yl)-1H-pyrazol-1-yl]azetidin-3-yl}acetonitrile tris(trifluoroacetate)] are “≧10” and below 10 nM.
`N#CCC1(n2cc(-c3ncnc4[nH]ccc34)cn2)CN([C@H]2CC[C@@H](Oc3cc(CN4CC(F)C4)nc(C(F)(F)F)n3)CC2)C1` [Example 37, {1-(cis-4-{[6-[(3-fluoroazetidin-1-yl)methyl]-2-(trifluoromethyl)pyrimidin-4-yl]oxy}cyclohexyl)-3-[4-(7H-pyrrolo[2,3-d]pyrimidin-4-yl)-1H-pyrazol-1-yl]azetidin-3-yl}acetonitrile tris(trifluoroacetate)]: the “JAK2/JAK1 IC50 ratio” value in experiment [1] is “≧10”. In experiment [2], this compound displayed an IC50 below 10 nM.
`N#CCC1(n2cc(-c3ncnc4[nH]ccc34)cn2)CN([C@H]2CC[C@@H](Oc3cc(CNCC4(CO)CC4)nc(C(F)(F)F)n3)CC2)C1` [Example 38, {1-(cis-4-{[6-[({[1-(hydroxymethyl)cyclopropyl]methyl}-amino)methyl]-2-(trifluoromethyl)pyrimidin-4-yl]oxy}cyclohexyl)-3-[4-(7H-pyrrolo[2,3-d]pyrimidin-4-yl)-1H-pyrazol-1-yl]azetidin-3-yl}acetonitrile tris(trifluoroacetate) (salt)]: the “JAK2/JAK1 IC50 ratio” value in experiment [1] is “≧10”. In addition, in experiment [2], the IC50 is below 10 nM.
On the same counts, the results for `COCCCNCc1cc(O[C@H]2CC[C@@H](N3CC(CC#N)(n4cc(-c5ncnc6[nH]ccc56)cn4)C3)CC2)nc(C(F)(F)F)n1` [Example 40, {1-(cis-4-{[6-{[(3-methoxypropyl)amino]methyl}-2-(trifluoromethyl)pyrimidin-4-yl]oxy}cyclohexyl)-3-[4-(7H-pyrrolo[2,3-d]pyrimidin-4-yl)-1H-pyrazol-1-yl]azetidin-3-yl}acetonitrile tris(trifluoroacetate)] are “≧10” and below 10 nM.
Take `COCC(C)NCc1cc(O[C@H]2CC[C@@H](N3CC(CC#N)(n4cc(-c5ncnc6[nH]ccc56)cn4)C3)CC2)nc(C(F)(F)F)n1` (stereo partly drawn) [Example 41, {1-(cis-4-{[6-{[(2-methoxy-1-methylethyl)amino]methyl}-2-(trifluoromethyl)pyrimidin-4-yl]oxy}cyclohexyl)-3-[4-(7H-pyrrolo[2,3-d]pyrimidin-4-yl)-1H-pyrazol-1-yl]azetidin-3-yl}acetonitrile tris(trifluoroacetate)]: the “JAK2/JAK1 IC50 ratio” value in experiment [1] is given as “≧10”. For the same compound, the IC50 in experiment [2] is below 10 nM.
For `COCCN(C)Cc1cc(O[C@H]2CC[C@@H](N3CC(CC#N)(n4cc(-c5ncnc6[nH]ccc56)cn4)C3)CC2)nc(C(F)(F)F)n1.O=C(O)C(F)(F)F.O=C(O)C(F)(F)F.O=C(O)C(F)(F)F` [Example 42, {1-(cis-4-{[6-{[(2-methoxyethyl)(methyl)amino]methyl}-2-(trifluoromethyl)pyrimidin-4-yl]oxy}cyclohexyl)-3-[4-(7H-pyrrolo[2,3-d]pyrimidin-4-yl)-1H-pyrazol-1-yl]azetidin-3-yl}acetonitrile tris(trifluoroacetate)], in experiment [1], the “JAK2/JAK1 IC50 ratio” value was “≧10”. Further, the IC50 in experiment [2] is below 10 nM.
As for `CC(C)(O)c1cc(O[C@H]2CC[C@@H](N3CC(CC#N)(n4cc(-c5ncnc6[nH]ccc56)cn4)C3)CC2)nc(C(F)(F)F)n1` [Example 43, {1-(cis-4-{[6-(1-Hydroxy-1-methylethyl)-2-(trifluoromethyl)pyrimidin-4-yl]oxy}cyclohexyl)-3-[4-(7H-pyrrolo[2,3-d]pyrimidin-4-yl)-1H-pyrazol-1-yl]azetidin-3-yl}acetonitrile bis(trifluoroacetate)], the “JAK2/JAK1 IC50 ratio” value in experiment [1] is given as “≧10”. The IC50 in experiment [2] is below 10 nM.
Take `CC(C)(C)NCc1cc(O[C@H]2CC[C@@H](N3CC(CC#N)(n4cc(-c5ncnc6[nH]ccc56)cn4)C3)CC2)nc(C(F)(F)F)n1` [Example 44, {1-(cis-4-{[6-[(tert-Butylamino)methyl]-2-(trifluoromethyl)pyrimidin-4-yl]oxy}cyclohexyl)-3-[4-(7H-pyrrolo[2,3-d]pyrimidin-4-yl)-1H-pyrazol-1-yl]azetidin-3-yl}acetonitrile tetrakis(trifluoroacetate)]: the “JAK2/JAK1 IC50 ratio” value in experiment [1] was “≧10”. In experiment [2], this compound yielded a 50% inhibitory concentration (IC50) below 10 nM.
For the compound `N#CCC1(n2cc(-c3ncnc4[nH]ccc34)cn2)CN([C@H]2CC[C@@H](Oc3cc(CCO)nc(C(F)(F)F)n3)CC2)C1` [Example 45, {1-(cis-4-{[6-(2-hydroxyethyl)-2-(trifluoromethyl)pyrimidin-4-yl]oxy}cyclohexyl)-3-[4-(7H-pyrrolo[2,3-d]pyrimidin-4-yl)-1H-pyrazol-1-yl]azetidin-3-yl}acetonitrile tris(trifluoroacetate)], in experiment [1], the “JAK2/JAK1 IC50 ratio” value is on record as “≧10”. The same compound displayed an IC50 in experiment [2] below 10 nM.
As for `CN(C)C(=O)c1cc(O[C@H]2CC[C@@H](N3CC(CC#N)(n4cc(-c5ncnc6[nH]ccc56)cn4)C3)CC2)nc(C(F)(F)F)n1` [Example 46, 6-[(cis-4-{3-(cyanomethyl)-3-[4-(7H-pyrrolo[2,3-d]pyrimidin-4-yl)-1H-pyrazol-1-yl]azetidin-1-yl}cyclohexyl)oxy]-N,N-dimethyl-2-(trifluoromethyl)pyrimidine-4-carboxamide bis(trifluoroacetate)], the “JAK2/JAK1 IC50 ratio” value in experiment [1] is “≧10”. In experiment [2], this compound came in with an IC50 below 10 nM.

Values taken from US9359358B2, “Cyclohexyl azetidine derivatives as JAK inhibitors” (Incyte Holdings Corporation, priority 2011, dated 2016).
